# In patent US20040029823A1, “Antisense oligonucleotide compositions and methods for the modulation of JNK proteins” (priority 1997, published 2004):
# Legend:
# MDA-MB-231 tumors = experiment: MDA-MB-231 human breast adenocarcinoma tumors in nude mice; format: in vivo; details: 25 mg/kg intravenous once daily
# Text: Approximately 5×10^6 breast adenocarcinoma cells (cell line MDA-MB-231; American Type Culture Collection, Richmond, Va., No. ATCC HTB-26) were implanted subcutaneously in the right inner thigh of nude mice (n=6 for each of three sets of mice). Oligonucleotides ISIS 15346 (JNK1, SEQ ID NO: 16) and 15353 (JNK2, SEQ ID NO: 31) were suspended in saline and administered once daily to two sets of mice on the first day the tumor volume was about […]. A saline-only (0.9% NaCl) solution was given to a third set of animals as a control. Oligonucleotides were given by intravenous injection at a dosage of 25 mg/kg. Tumor size was measured and tumor volume was calculated on days 12, 19, 26 and 33 following tumor cell inoculation.
# [1] = system: TNFa-induced JNK activity; experiment: TNFa-induced JNK activity in HUVEC (GST-c-Jun phosphorylation); format: cell-based, human; details: 100 nM oligonucleotide, compared to a control oligonucleotide
# HUVEC = experiment: Apoptosis in HUVEC (percent hypodiploid cells, flow cytometry); format: cell-based, human; details: HUVEC
substance,measurement,setting,value
"G^ST^SC^SC^SG^SG^SG^SC^SC^SA^SG^SG^SC^SC^SA^SA^SA^SG^ST^SC (antisense GTCCGGGCCAGGCCAAAGTC; DNA, all phosphorothioate, methylation of C not given here) [ISIS 15353, JNK2 gapmer: P═S, 2′-MOE wings; P═S, 2-deoxy core]",Mean Tumor Volume,MDA-MB-231 tumors; Day 12 after tumor cell inoculation,0.122 cm^3
same,Mean Tumor Volume,MDA-MB-231 tumors; Day 19,0.230 cm^3
same,Mean Tumor Volume,MDA-MB-231 tumors; Day 26,0.358 cm^3
same,Mean Tumor Volume,MDA-MB-231 tumors; Day 33,0.762 cm^3
same,inhibition of TNFa-induced JNK activity,[1],~55%
same,percent hypodiploid cells (a measure of apoptosis),HUVEC; Oligo + Cyclohexamide,27%
same,percent hypodiploid cells (a measure of apoptosis),HUVEC; Oligo + TNFa (10 ng/ml),32%
same,percent hypodiploid cells (a measure of apoptosis),HUVEC; Oligo + z-VAD.fmk,17%
same,percent hypodiploid cells (a measure of apoptosis),HUVEC; Oligo alone,23%
